Experimental data from patent US20230043863A1, “HETEROAROMATIC DERIVATIVES FOR USE AS REGULATOR, PREPARATION METHOD THEREFOR AND USE THEREOF” (JIANGSU HANSOH PHARMACEUTICAL GROUP CO., LTD., priority 2018, published 2023).
Where two headings read alike, the source gives them in different places.

Key:
JAK1 = JAK1 (Homo sapiens, UniProt P23458); assay: JAK kinase activity inhibition, TR-FRET (JAK1); format: biochemical; details: TR-FRET kinase assay
Summary of the method: (§1)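 Recombinant kinase at 0.1-20 nM, peptide substrate, ATP; room temperature, 0.5-5 h; EDTA stop, labeled-antibody TR-FRET readout; IC50 by curve fit.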

TYK2 = TYK2 (Homo sapiens, UniProt P29597); assay: JAK kinase activity inhibition, TR-FRET (TYK2); format: biochemical; details: TR-FRET kinase assay
Summary of the method: as §1

[1] = test system: JAK-STAT signal pathway of U266 cells; assay: Inhibition of cellular JAK-STAT signal pathway (STAT3 phosphorylation) in U266 cells; format: cell-based, human; details: Homo sapiens, U-266, INF-a 1000 U/mL stimulation
Method: The objective of the test is to test the inhibitory activity of the compound on the cellular JAK-STAT signaling pathway.
U266 cell line was used in this experiment, by activating the JAK-STAT signaling pathway through INF-a stimulation, the inhibitory activity of the compound on its downstream STAT3 phosphorylation was detected, and the half inhibitory concentration IC50 of the compound on the JAK-STAT signaling pathway activity was obtained.
3-12 μL of U266 cell line was spread into the 384-well detection plate, and the number of cells in each well was 100-300 K, followed by addition of 2 μL of the compound solution serially diluted. The plate was incubated for 2 hours with shaking at 350 rpm at room temperature. After 2 hours, 2 μL of INF-a with a final concentration of 1000 U/mL was added. The plate was shaken at room temperature for 15 minutes. 2-5 μL (5×) LANCE Ultra Lysis Buffer 2 solution was added and the plate was shaken at room temperature for 2 hours. After 2 hours, 5 μL of LANCE Ultra Eu-labeled Anti-STAT3 Antibody (PerkinElmer) with a final concentration of 0.5 nM and LANCE Ultra ULight-labeled Anti-STAT3 Antibody (PerkinElmer) with a final concentration of 5 nM were added, and the plate was incubated overnight at room temperature. The fluorescence signal value at 665 nm of each well was measured with the microplate reader, and the inhibition rate was calculated from the fluorescence signal value. According to the inhibition rate of different concentrations, the IC50 of the compound was obtained by curve fitting.
The percentage inhibition data of the wells treated with the compound was calculated with the positive control wells (DMSO control wells) and negative control wells (no kinase added) on the plate {% inhibition rate=100-[(test compound value-negative control value)]/(Positive control value-negative control value)×100}. IC50 value was calculated by using GraphPad prism to fit the data of different concentrations and corresponding percentage inhibition rates to a 4-parameter non-linear logic formula.

[2] = Balb/C mouse pharmacokinetics (plasma, colon, ileum); format: in vivo; details: male, po, Balb/C mice, p.o. 5 mg/kg; for Cmax: read-out: Blood concentration Cmax; for AUC(0-t): read-out: Curve area AUC0-t; for MRT: read-out: Mean detention time MRT; for Tmax: read-out: Time to peak tmax; for AUC(0-inf): read-out: Curve area AUC0-∞; for half-life: read-out: Half life period t1/2 (converted)
Excerpt: Balb/C mouse was used as the test animal, the pharmacokinetic behavior in mice (plasma and colon, ileum tissue) was studied after oral administering the embodiment 1, embodiment 60, embodiment 169, embodiment 170, embodiment 171, embodiment 179, embodiment 191, embodiment 213, embodiment 214, embodiment 237, embodiment 238, embodiment 244, embodiment 246, embodiment 247, embodiment 257, embodiment 260, embodiment 262, embodiment 263, embodiment 267, embodiment 277, embodiment 278, embodiment 279, embodiment 288, embodiment 295, embodiment 299 and embodiment 301 at a dose of 5 mg/kg. After analyzing the drug concentration in the colon and ileum, the ratio of the drug concentration in the colon to that in ileum, and the ratio of the drug concentration in the colon to that in the plasma, the compounds with excellent PK were selected for further research.
12 Balb/C mice in each group, male, Shanghai Jiesjie Experimental Animal Co., Ltd., animal production license number (SCXK (Shanghai) 2013-0006 N0.311620400001794).
12 Balb/C mice in each group, male; p.o. after one night fast; the dose was 5 mg/kg; the administration volume was 10 mL/kg.
At 0, 0.5, 1, 2, 3, 5 and 7 hours before and after the administration, the mice were executed by CO2 and 0.2 mL of blood was collected from the heart, placed in an EDTA-K2 test tube, and centrifuged at 6000 rpm at 4° C. for 6 minutes to separate the plasma, which was then stored at −80° C. The ileum was taken close to the cecum end with a length of about 4-5 cm, and the colon was also taken close to the cecum end with a length of about 2-3 cm, weighed and placed in a 2 mL centrifuge tube, then stored at −80° C.
1) 40 uL of plasma sample was precipitated by adding 160 uL of acetonitrile, mixed and centrifuged at 3500×g for 5-20 minutes.
2) 30 μL of plasma and intestinal homogenate sample were precipitated by adding 90 of acetonitrile containing internal standard (100 ng/mL), mixed and centrifuged at 13000 rpm for 8 minutes.
3) 70 μL of the supernatant solution after treatment was collected and 70 μL of water was added thereto, vortexed and mixed for 10 minutes, and then 20 μL was collected to analyze the concentration of the test compound by LC/MS/MS. LC/MS/MS analysis instrument: AB Sciex API 4000 Qtrap.
Liquid phase conditions: Shimadzu LC-20AD Pump
Chromatographic column: Agilent ZORBAX XDB-C18 (50×2.1 mm, 3.5 μm) mobile phase: 0.1% formic acid aqueous solution as A solution, acetonitrile as B solution
Elution time: 0-4.0 minutes, the eluent is as follows:
The main pharmacokinetic parameters were calculated with WinNonlin 6.1, and the results of mouse pharmacokinetic experiments are shown in Table 3:
NA refers to none detected or not being tested (the detection limit of blood concentration was 1 ng/mL, when the Cmax in the blood test is NA, then NA in the blood test index refers to none detected; when the Cmax in the blood test is higher than the quantitative limit 1 ng/mL, then NA in the blood test index refers to not being tested; NA in the tissues (colon and ileum) refers to not being tested).

Chain of JAK1 (P23458 whole entry): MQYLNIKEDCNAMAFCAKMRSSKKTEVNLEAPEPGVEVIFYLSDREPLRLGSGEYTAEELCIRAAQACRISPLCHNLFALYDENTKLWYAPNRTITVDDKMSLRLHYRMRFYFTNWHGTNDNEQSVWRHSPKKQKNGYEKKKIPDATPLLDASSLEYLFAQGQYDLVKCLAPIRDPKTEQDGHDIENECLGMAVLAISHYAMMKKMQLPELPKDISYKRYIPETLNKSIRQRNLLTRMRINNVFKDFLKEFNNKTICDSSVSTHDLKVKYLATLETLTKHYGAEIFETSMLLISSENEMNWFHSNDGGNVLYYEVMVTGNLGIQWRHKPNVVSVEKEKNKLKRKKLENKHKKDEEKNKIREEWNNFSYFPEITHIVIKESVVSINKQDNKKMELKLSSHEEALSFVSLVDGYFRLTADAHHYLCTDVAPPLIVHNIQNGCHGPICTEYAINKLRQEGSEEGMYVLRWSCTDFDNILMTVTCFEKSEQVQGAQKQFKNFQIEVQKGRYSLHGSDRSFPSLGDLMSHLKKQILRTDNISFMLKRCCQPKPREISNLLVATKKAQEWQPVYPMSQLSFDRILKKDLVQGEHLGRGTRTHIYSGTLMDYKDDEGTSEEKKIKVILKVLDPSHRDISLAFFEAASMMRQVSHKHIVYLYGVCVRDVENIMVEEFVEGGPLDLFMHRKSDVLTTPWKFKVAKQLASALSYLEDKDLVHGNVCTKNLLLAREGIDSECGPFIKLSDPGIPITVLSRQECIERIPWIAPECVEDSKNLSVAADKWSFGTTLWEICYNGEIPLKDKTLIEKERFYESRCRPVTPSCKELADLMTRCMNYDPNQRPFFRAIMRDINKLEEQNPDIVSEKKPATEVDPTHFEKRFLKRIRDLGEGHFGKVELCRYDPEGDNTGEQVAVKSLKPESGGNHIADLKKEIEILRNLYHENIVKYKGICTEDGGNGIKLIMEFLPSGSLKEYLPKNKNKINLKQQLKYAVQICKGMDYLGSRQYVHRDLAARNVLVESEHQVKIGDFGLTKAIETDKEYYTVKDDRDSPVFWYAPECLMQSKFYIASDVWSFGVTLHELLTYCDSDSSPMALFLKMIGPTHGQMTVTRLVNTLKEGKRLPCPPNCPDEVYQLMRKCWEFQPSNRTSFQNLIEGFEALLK
Chain of TYK2 (P29597 whole entry): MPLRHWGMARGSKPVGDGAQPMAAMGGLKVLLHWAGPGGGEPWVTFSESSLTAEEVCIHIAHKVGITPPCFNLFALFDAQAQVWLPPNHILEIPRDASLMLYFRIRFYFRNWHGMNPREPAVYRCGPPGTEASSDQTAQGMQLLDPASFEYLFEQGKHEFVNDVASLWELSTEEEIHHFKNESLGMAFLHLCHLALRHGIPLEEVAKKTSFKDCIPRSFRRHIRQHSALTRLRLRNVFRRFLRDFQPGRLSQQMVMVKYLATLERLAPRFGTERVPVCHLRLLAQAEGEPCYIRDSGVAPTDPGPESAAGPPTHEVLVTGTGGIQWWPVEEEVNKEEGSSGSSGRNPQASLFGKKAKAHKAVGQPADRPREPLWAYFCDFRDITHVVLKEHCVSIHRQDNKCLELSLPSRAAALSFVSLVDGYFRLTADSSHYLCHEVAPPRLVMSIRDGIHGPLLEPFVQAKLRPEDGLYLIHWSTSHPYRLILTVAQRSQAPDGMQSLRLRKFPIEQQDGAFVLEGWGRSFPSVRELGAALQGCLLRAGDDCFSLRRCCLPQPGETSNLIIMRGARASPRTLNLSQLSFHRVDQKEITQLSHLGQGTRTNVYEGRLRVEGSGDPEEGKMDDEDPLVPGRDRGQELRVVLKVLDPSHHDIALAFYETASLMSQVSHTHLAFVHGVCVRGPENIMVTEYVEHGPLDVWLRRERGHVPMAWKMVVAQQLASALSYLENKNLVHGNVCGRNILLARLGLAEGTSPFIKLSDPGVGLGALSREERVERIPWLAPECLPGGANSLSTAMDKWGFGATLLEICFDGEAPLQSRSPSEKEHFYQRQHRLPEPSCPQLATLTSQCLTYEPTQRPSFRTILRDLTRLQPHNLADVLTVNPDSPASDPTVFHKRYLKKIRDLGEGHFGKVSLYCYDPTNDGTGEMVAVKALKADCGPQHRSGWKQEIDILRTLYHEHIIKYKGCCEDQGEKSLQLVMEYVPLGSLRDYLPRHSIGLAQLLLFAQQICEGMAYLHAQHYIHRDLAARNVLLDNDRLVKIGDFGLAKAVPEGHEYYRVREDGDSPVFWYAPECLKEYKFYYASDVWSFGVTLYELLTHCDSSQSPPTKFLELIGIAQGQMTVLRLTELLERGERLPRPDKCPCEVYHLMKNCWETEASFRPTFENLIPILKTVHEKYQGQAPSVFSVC

Structure (SMILES) | IC50 (JAK1) | IC50 (TYK2) | IC50 [1] | Cmax ([2]; plasma, blood) | AUC(0-t) ([2]; plasma, blood) | MRT ([2]; plasma, blood) | Tmax ([2]; plasma, blood) | Cmax ([2]; colon) | AUC(0-t) ([2]; colon) | AUC(0-inf) ([2]; colon) | half-life ([2]; colon) | MRT ([2]; colon) | Tmax ([2]; colon) | Cmax ([2]; ileum) | AUC(0-t) ([2]; ileum) | MRT ([2]; ileum) | Tmax ([2]; ileum) | AUC(0-inf) ([2]; ileum) | half-life ([2]; ileum)
Cc1cc(Nc2nc(N[C@@H]3C[C@H]4CC[C@@H](C3)N4CCC#N)nc3cc(-c4cccnc4)ccc23)n[nH]1 [Embodiment 179, 3-((3-exo)-3-((4-((5-methyl-1H-pyrazol-3-yl)amino)-7-(pyridin-3-yl)quinazolin-2-yl)amino)-8-azabicyclo[3.2.1]oct-8-yl)propionitrile] | 0.44 nM | 0.47 nM | 9.84 nM | 3.8 ng/mL | 6.76 ng·h/mL | 1.66 h | 0.5 h | 485 ng/mL | 2040 ng·h/mL | 2180 ng·h/mL | 1.49 h | 2.83 h | 1 h | 2330 ng/mL | 10300 ng·h/mL | 2.88 h | 3 h | – | –
Cc1cc(Nc2nc(N[C@@H]3C[C@H]4CC[C@@H](C3)N4CCC#N)nc3cc(N4CCOCC4)ccc23)n[nH]1 [Embodiment 191, 3-((3-exo)-3-((4-((5-methyl-1H-pyrazol-3-yl)amino)-7-morpholinoquinazolin-2-yl)amino)-8-azabicyclo[3.2.1]oct-8-yl)propionitrile] | 0.41 nM | 0.94 nM | 2.8 nM | 0.81 ng/mL | – | – | 1 h | 3350 ng/mL | 10600 ng·h/mL | – | – | 4.59 h | 5 h | 32600 ng/mL | 51500 ng·h/mL | 1.13 h | 1 h | 51700 ng·h/mL | 1.39 h
Cc1cc(Nc2nc(N[C@@H]3C[C@H]4CC[C@@H](C3)N4C(=O)CN3CCOCC3)nc3sccc23)n[nH]1 [Embodiment 244, 1-((3-exo)-3-((4-((5-methyl-1H-pyrazol-3-yl)amino)thieno[2,3-d]pyrimidin-2-yl)amino)-8-azabicyclo[3.2.1]oct-8-yl)-2-morpholinoethane-1-one] | 1.15 nM | 2.45 nM | 3.79 nM | 12 ng/mL | 18 ng·h/mL | 2.12 h | 3 h | 1190 ng/mL | 4900 ng·h/mL | – | – | 4.38 h | 7 h | 9010 ng/mL | 22600 ng·h/mL | 1.83 h | 1 h | 22600 ng·h/mL | 0.66 h
Cc1cc(Nc2nc(N[C@@H]3C[C@H]4CCC[C@@H](C3)N4C(=O)c3ccncc3)nc3sccc23)n[nH]1 [Embodiment 262, ((3-exo)-3-((4-((5-methyl-1H-pyrazol-3-yl)amino)thieno[2,3-d]pyrimidin-2-yl)amino)-9-azabicyclo[3.3.1]non-9-yl)(pyridin-4-yl)methanone] | 0.07 nM | 1.35 nM | 9.47 nM | 8.01 ng/mL | 13.4 ng·h/mL | 1.77 h | 2 h | 1240 ng/mL | 3940 ng·h/mL | 4520 ng·h/mL | 1.69 h | 3.72 h | 3 h | 22300 ng/mL | 40200 ng·h/mL | 1.34 h | 1 h | 40300 ng·h/mL | 0.49 h
Cc1cc(Nc2nc(N[C@@H]3C[C@H]4CCC[C@@H](C3)N4C(=O)c3nccn3C)nc3sccc23)n[nH]1 [Embodiment 263, (1-methyl-1H-imidazol-2-yl) ((3-exo)-3-((4-((5-methyl-1H-pyrazol-3-yl)amino)thieno[2,3-d]pyrimidin-2-yl)amino)-9-azabicyclo[3.3.1]non-9-yl)methanone] | 0.11 nM | 0.22 nM | 4.07 nM | 12.7 ng/mL | 57.6 ng·h/mL | 3.51 h | 3 h | 5540 ng/mL | 15500 ng·h/mL | – | – | 3.58 h | 3 h | 5490 ng/mL | 9910 ng·h/mL | 1.36 h | 1 h | 9940 ng·h/mL | 0.82 h
Cc1cc(Nc2nc(N[C@@H]3C[C@H]4CCC[C@@H](C3)N4S(=O)(=O)c3ccccn3)nc3sccc23)n[nH]1 [Embodiment 267] | 0.13 nM | 0.39 nM | 18 nM | – | – | – | – | 1270 ng/mL | 5610 ng·h/mL | – | – | 4.4 h | 5 h | 12200 ng/mL | 20700 ng·h/mL | 1.24 h | 1 h | 20700 ng·h/mL | 0.53 h
Cc1cc(Nc2nc(N[C@@H]3C[C@@H]4CN(CCC#N)C[C@@H]4C3)nc3sccc23)n[nH]1 [Embodiment 298, 3-(cis-5-((4-((5-methyl-1H-pyrazol-3-yl)amino)thieno[2,3-d]pyrimidin-2-yl)amino)hexahydrocyclopentadieno[c]pyrrole-2(1H)-yl)propionitrile] | 0.67 nM | 22.8 nM | 1.86 nM | – | – | – | – | – | – | – | – | – | – | – | – | – | – | – | –
Cc1cc(Nc2nc(NC3CCN(CCC#N)CC3)nc3ccccc23)n[nH]1 [Embodiment 310, 3-(4-((4-((5-methyl-1H-pyrazol-3-yl)amino)quinazolin-2-yl)amino)piperidin-1-yl)propionitrile] | 8.67 nM | 0.26 nM | 5.41 nM | – | – | – | – | – | – | – | – | – | – | – | – | – | – | – | –
